Reference: PubChem BioAssay (NCI)
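96-well plates; 48 h exposure; 5 concentrations. Endpoints by linear interpolation between flanking doses. Not reached: highest tested concentration assigned. Abbreviation: GI50, concentration required for 50% inhibition of growth. TGI: concentration producing complete growth inhibition.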

Columns and labels:
Experiment in all cases: NCI-60 cell line screen, 48 h
[1] = test system: M14 melanoma
[2] = test system: SK-MEL-2 melanoma
[3] = test system: A549 NSCLC
[4] = test system: HOP-62 NSCLC
[5] = test system: LOX IMVI melanoma
[6] = test system: SK-MEL-5 melanoma
[7] = test system: OVCAR-3 ovarian
[8] = test system: KM20L2 colon
[9] = test system: KM12 colon
[10] = test system: CAKI-1 renal
[11] = test system: OVCAR-8 ovarian
[12] = test system: UACC-257 melanoma
[13] = test system: MOLT-4 leukemia
[14] = test system: TK-10 renal
[15] = test system: SNB-75 CNS
[16] = test system: EKVX NSCLC
[17] = test system: OVCAR-5 ovarian
[18] = test system: NCI-H522 lung
[19] = test system: K-562 leukemia
[20] = test system: U251 CNS
[21] = test system: SK-MEL-28 melanoma
[22] = test system: SK-OV-3 ovarian
[23] = test system: LXFL 529 NSCLC
[24] = test system: HL-60(TB) leukemia
[25] = test system: NCI-H460 lung
[26] = test system: SW-620 colon
[27] = test system: IGROV1 ovarian
[28] = test system: RPMI-8226 leukemia
[29] = test system: SN12C renal
[30] = test system: M19-MEL melanoma
[31] = test system: DLD-1 colon
[32] = test system: SF-268 CNS
[33] = test system: HOP-18 NSCLC
[34] = test system: RXF 393 renal
[35] = test system: HCT-116 colon
[36] = test system: UO-31 renal
[37] = test system: SF-539 CNS
[38] = test system: HT29 colon
[39] = test system: 786-0 renal
[40] = test system: A498 renal
[41] = test system: NCI-H23 lung
[42] = test system: ACHN renal
[43] = test system: DMS 273 small cell lung
[44] = test system: COLO 205 colon
[45] = test system: OVCAR-4 ovarian
[46] = test system: UACC-62 melanoma
[47] = test system: SF-295 CNS
[48] = test system: CCRF-CEM leukemia
[49] = test system: HCT-15 colon
[50] = test system: MALME-3M melanoma
[51] = test system: NCI-H226 lung
[52] = test system: SNB-19 CNS
[53] = test system: HCC-2998 colon
[54] = test system: SR leukemia
[55] = test system: DU-145 prostate
[56] = test system: MDA-N
[57] = test system: NCI/ADR-RES ovarian
[58] = test system: MCF7 breast
[59] = test system: T-47D breast
[60] = test system: HOP-92 NSCLC
[61] = test system: HS 578T breast
[62] = test system: MDA-MB-435
[63] = test system: BT-549 breast
[64] = test system: PC-3 prostate
[65] = test system: MDA-MB-231 breast

CC(=O)[CH-]C(=O)c1ccccc1.CC(=O)[CH-]C(=O)c1ccccc1.CC(C)CCCC(C)[C@H]1CCC2[C@@H]3CCC4C[C@@H]([O-])CC[C@]4(C)C3CC[C@@]21C.CC(C)CCCC(C)[C@H]1CCC2[C@@H]3CCC4C[C@@H]([O-])CC[C@]4(C)C3CC[C@@]21C.Cl.[Ti+4] (stereo partly specified)
GI50 [1]: > 25 µM | TGI [1]: > 25 µM | GI50 [2]: > 25 µM | TGI [2]: > 25 µM | GI50 [3]: > 25 µM | TGI [3]: > 25 µM | GI50 [4]: > 25 µM | TGI [4]: > 25 µM | GI50 [5]: > 25 µM | TGI [5]: > 25 µM | GI50 [6]: > 25 µM | TGI [6]: > 25 µM | GI50 [7]: > 25 µM | TGI [7]: > 25 µM | GI50 [8]: > 25 µM | TGI [8]: > 25 µM | GI50 [9]: > 25 µM | TGI [9]: > 25 µM | GI50 [10]: > 25 µM | TGI [10]: > 25 µM | GI50 [11]: > 25 µM | TGI [11]: > 25 µM | GI50 [12]: > 25 µM | TGI [12]: > 25 µM | GI50 [13]: > 25 µM | TGI [13]: > 25 µM | GI50 [14]: > 25 µM | TGI [14]: > 25 µM | GI50 [15]: > 25 µM | TGI [15]: > 25 µM | GI50 [16]: > 25 µM | TGI [16]: > 25 µM | GI50 [17]: > 25 µM | TGI [17]: > 25 µM | GI50 [18]: > 25 µM | TGI [18]: > 25 µM | GI50 [19]: > 25 µM | TGI [19]: > 25 µM | GI50 [20]: > 25 µM | TGI [20]: > 25 µM | GI50 [21]: > 25 µM | TGI [21]: > 25 µM | GI50 [22]: > 25 µM | TGI [22]: > 25 µM | GI50 [23]: > 25 µM | TGI [23]: > 25 µM | GI50 [24]: 8.29 µM | TGI [24]: 24.9 µM | GI50 [25]: > 25 µM | TGI [25]: > 25 µM | GI50 [26]: > 25 µM | TGI [26]: > 25 µM | GI50 [27]: > 25 µM | TGI [27]: > 25 µM | GI50 [28]: > 25 µM | TGI [28]: > 25 µM | GI50 [29]: > 25 µM | TGI [29]: > 25 µM | GI50 [30]: > 25 µM | TGI [30]: > 25 µM | GI50 [31]: > 25 µM | TGI [31]: > 25 µM | GI50 [32]: > 25 µM | TGI [32]: > 25 µM | GI50 [33]: > 25 µM | TGI [33]: > 25 µM | GI50 [34]: > 25 µM | TGI [34]: > 25 µM | GI50 [35]: > 25 µM | TGI [35]: > 25 µM | GI50 [36]: > 25 µM | TGI [36]: > 25 µM | GI50 [37]: > 25 µM | TGI [37]: > 25 µM | GI50 [38]: > 25 µM | TGI [38]: > 25 µM | GI50 [39]: > 25 µM | TGI [39]: > 25 µM | GI50 [40]: > 25 µM | TGI [40]: > 25 µM | GI50 [41]: > 25 µM | TGI [41]: > 25 µM | GI50 [42]: > 25 µM | TGI [42]: > 25 µM | GI50 [43]: > 25 µM | TGI [43]: > 25 µM | GI50 [44]: > 25 µM | TGI [44]: > 25 µM | GI50 [45]: > 25 µM | TGI [45]: > 25 µM | GI50 [46]: > 25 µM | TGI [46]: > 25 µM | GI50 [47]: > 25 µM | TGI [47]: > 25 µM | GI50 [48]: > 25 µM | TGI [48]: > 25 µM | GI50 [49]: > 25 µM | TGI [49]: > 25 µM | GI50 [50]: 8.93 µM | TGI [50]: > 25 µM | GI50 [51]: > 25 µM | TGI [51]: > 25 µM | GI50 [52]: > 25 µM | TGI [52]: > 25 µM | GI50 [53]: > 25 µM | TGI [53]: > 25 µM

COc1cccc(C(=O)O)c1Cc1cccc2ccccc12
TGI [1]: > 100 µM | TGI [2]: > 100 µM | TGI [3]: > 100 µM | TGI [4]: > 100 µM | TGI [5]: > 100 µM | TGI [6]: > 100 µM | TGI [7]: > 100 µM | TGI [8]: > 100 µM | TGI [9]: > 100 µM | TGI [10]: > 100 µM | TGI [11]: > 100 µM | TGI [12]: > 100 µM | TGI [13]: > 100 µM | TGI [14]: > 100 µM | TGI [15]: > 100 µM | TGI [16]: > 100 µM | TGI [17]: > 100 µM | TGI [18]: > 100 µM | TGI [19]: > 100 µM | TGI [20]: > 100 µM | TGI [21]: > 100 µM | TGI [22]: > 100 µM | TGI [23]: > 100 µM | TGI [24]: > 100 µM | TGI [25]: > 100 µM | TGI [26]: > 100 µM | TGI [27]: > 100 µM | TGI [29]: > 100 µM | TGI [30]: > 100 µM | TGI [31]: > 100 µM | TGI [32]: > 100 µM | TGI [33]: > 100 µM | TGI [34]: > 100 µM | TGI [35]: > 100 µM | TGI [36]: > 100 µM | TGI [54]: > 100 µM | TGI [38]: > 100 µM | TGI [39]: > 100 µM | TGI [41]: > 100 µM | TGI [42]: > 100 µM | TGI [43]: > 100 µM | TGI [44]: > 100 µM | TGI [45]: > 100 µM | TGI [46]: > 100 µM | TGI [47]: > 100 µM | TGI [48]: > 100 µM | TGI [49]: > 100 µM | TGI [50]: > 100 µM | TGI [51]: > 100 µM | TGI [52]: > 100 µM | TGI [53]: > 100 µM

COc1ccc(C(=O)N=C2N(c3ccccc3)C(=Nc3ccccc3)C(=Nc3ccccc3)N2c2ccccc2)cc1
TGI [1]: > 65.2 µM | TGI [55]: > 100 µM | TGI [2]: 98.1 µM | TGI [3]: > 100 µM | TGI [4]: 57.5 µM | TGI [5]: > 100 µM | TGI [56]: > 100 µM | TGI [6]: > 56.7 µM | TGI [7]: > 100 µM | TGI [57]: > 100 µM | TGI [9]: > 100 µM | TGI [10]: > 100 µM | TGI [11]: > 100 µM | TGI [12]: > 100 µM | TGI [13]: > 100 µM | TGI [14]: > 61.2 µM | TGI [15]: 27.2 µM | TGI [16]: > 100 µM | TGI [17]: > 100 µM | TGI [58]: > 100 µM | TGI [18]: > 100 µM | TGI [19]: > 100 µM | TGI [20]: > 87.9 µM | TGI [59]: > 100 µM | TGI [21]: > 66.6 µM | TGI [22]: > 100 µM | TGI [24]: > 100 µM | TGI [25]: > 100 µM | TGI [26]: > 100 µM | TGI [27]: > 100 µM | TGI [28]: > 100 µM | TGI [29]: > 100 µM | TGI [32]: > 100 µM | TGI [60]: 15 µM | TGI [61]: 96.5 µM | TGI [34]: 25.8 µM | TGI [35]: > 100 µM | TGI [36]: > 100 µM | TGI [37]: > 100 µM | TGI [54]: > 100 µM | TGI [38]: > 100 µM | TGI [39]: 59.5 µM | TGI [40]: 61.1 µM | TGI [41]: > 100 µM | TGI [42]: > 100 µM | TGI [44]: > 100 µM | TGI [62]: > 100 µM | TGI [45]: 87.3 µM | TGI [46]: > 100 µM | TGI [47]: > 100 µM | TGI [48]: > 100 µM | TGI [49]: > 100 µM | TGI [63]: > 58.2 µM | TGI [64]: > 65.5 µM | TGI [65]: > 100 µM | TGI [50]: > 58.3 µM | TGI [51]: > 100 µM | TGI [52]: > 100 µM | TGI [53]: > 100 µM
